Patent US9803220B2, “Production of alkenes from 3-hydroxy-1-carboxylic acids via 3-sulfonyloxy-1-carboxylic acids” (Scientist of Fortune S.A., priority 2012, dated 2017)

Assays:
[1] = system: sulfotransferase CurM (PKS ST); assay: Sulfotransferase activity assay, sulfurylation of 3-hydroxybutyrate with PAPS, MS detection; assay type: biochemical, Moorea producens (formerly Lyngbya majuscala) 19L; conditions: 5 mM (R,S)-3-hydroxybutyrate, 5 mM PAPS, 5 mg/ml enzyme, 1.5 hours at 37° C., pH 7.5
Text: Sequence of sulfotransferase domain of polyketide synthase CurM (PKS ST) inferred from the genome of Moorea producens (formerly Lyngbya majuscala) 19L was generated by oligonucleotide concatenation to fit the codon usage of E. coli. A stretch of 6 histidine codons was inserted after the methionine initiation codon to provide an affinity tag for purification. The gene thus synthesized was cloned in a pET25b(+) expression vector (the vectors were constructed by GENEART AG). After transformation of the E. coli strain BL21 (DE3), the protein was produced according to the procedure described in Example 1 and sulfotransferase activity was assayed under the following conditions
5 mM (R,S)-3-hydroxybutyrate
5 mg/ml purified sulfotransferase (ST) CurM.
Control reaction was performed using the same reaction mixture without addition of the enzyme. The assays were incubated for 1.5 hours at 37° C. An aliquot of 200 μl of each assay was then removed, filtered through a 0.45 μm filter and the filtrated solution was transferred into a clean vial. MS analyses were performed in negative electrospray mode by direct injection of sample using PE SCIEX API 2000 quadrupole instrument. The presence of 3-sulfonyloxybutyrate was evaluated. […] The peak at m/z=182.8 was assigned to mono-deprotonated form of 3-sulfonyloxybutyrate, [M-H]^−. […]

[2] = Thermal conversion of 3-sulfonyloxybutyrate to propylene, headspace GC-FID; assay type: physicochemical; conditions: 50 mM substrate, 50 mM Tris-HCl pH 7.5, 0 to 90 h
Description: The thermal conversion assays containing, in a total volume of 0.5 mL, 50 mM 3-sulfonyloxybutyrate and 50 mM Tris-HCl pH 7.5, were incubated in 2 ml sealed glass vials (Interchim) at 37° C. and 65° C. with shaking. Propylene production at different incubation times (from 0 to 90 h) was analyzed as follows. One ml of the gaseous phase was collected and injected into a gas chromatograph Varian 430-GC equipped with FID detector. Nitrogene was used as carrier gas with a flow rate of 1.5 ml/min. Volatile compounds were separated on RT-Alumina Bond/Na2SO4 column (Restek) using an isothermal mode at 130° C. Gaseous product of thermal decomposition of disodium (R,S)-3-sulfonyloxybutyrate was identified by comparison with propylene standard (Sigma, Aldrich). Under these GC conditions, the retention time for propylene was 3.2 min. […] (FIGS. 6 and 7).

SMILES | transfer of the sulfate group from PAPS onto hydroxyl group (formation of 3-sulfonyloxybutyrate) [1] | propylene production by thermal conversion ([2]; 37° C.) | propylene production by thermal conversion ([2]; 37° C., listed as sulfonylbutyrate) | propylene production by thermal conversion ([2]; 65° C.)
CC(O)CC(=O)O (stereo not shown) [3-hydroxybutyrate] | catalyzes transfer of the sulfate group | – | – | –
CC(CC(=O)[O-])OS(=O)(=O)[O-].[Na+].[Na+] (racemic) [disodium (R,S)-3-sulfonyloxybutyrate, Disodium (R,S)-3-sulfonyloxybutyrate] | – | Significant production of propylene | already occurs | Significant production of propylene
